Test results published in patent US10130651B2, “RNAi Therapy for Hepatitis B Virus Infection” (Arrowhead Pharmaceuticals, Inc., priority 2015, dated 2018).

Experiments:
Assay type in all cases: in vivo, NOD-SCID mice (pHBV model)
HBsAg, Hepatitis B Virus [1] = test: Serum HBsAg in pHBV mice after MLP delivery peptide plus AD01385 and/or AD01386 (Example 10, Tables 17, 18); conditions: 3 mg/kg MLP delivery peptide plus […] of each RNAi trigger; for Mean HBsAg in serum: single IV
Protocol: At day −28, 6 to 8 week old female NOD.CB17-Prkdscid/NcrCrl (NOD-SCID) mice were transiently transfected in vivo with MC-HBV 1.3 by hydrodynamic tail vein injection as described.
CDM-NAG was added to MLP, SEQ ID NO: 650 (GIL MLP, L-form), in a 250 mM HEPES-buffered aqueous solution at a 5:1 (w/w) ratio at room temperature and incubated for 30 min to yield MLP delivery peptide. The reaction mixture was adjusted to pH 9.0 with 4 M NaOH. The extent of the reaction was assayed using 2,4,6-trinitrobenzene-sulfonic acid and determined to be >95%. MLP delivery peptide was purified by tangential flow in 10 mM bicarbonate buffer, pH 9.0, to which 10% dextran (w/w) was added. The final purified material was lyophilized.
5 mg lyophilized MLP delivery peptide was resuspended with 1 mL water. MLP delivery peptide was then combined with HBV RNAi triggers (AD01385 or AD01386) at the various dose levels.
At Day 1, each mouse was given a single IV administration via tail vein of 200 μl per 20 gram body weight of saline containing MLP delivery peptide+HBV RNAi triggers.
At various time points, before and after administration of MLP delivery peptide+HBV RNAi triggers, serum HBsAg and serum HBV DNA were measured. The HBsAg level in serum for each animal at a time point was divided by the pre-treatment level in that animal in order to determine the ratio of HBsAg in serum “normalized to pre-treatment”. The HBV DNA level in serum for each group at a time point was also divided by the pre-treatment level in that group in order to determine the ratio of HBV DNA in serum “normalized to pre-treatment”. In order to account for non-treatment related decline in expression of MC-HBV 1.3 or pHBV 1.3.—the “normalized to pre-treatment” ratio for an individual animal at a time point was then divided by the average “normalized to pre-treatment” ratio of all mice in the saline control group at the same time point to obtain the ratio of HBsAg, or HBV DNA, in serum “normalized to pre-treatment and control”.
Mice were anesthetized with 2-3% isoflurane and blood samples were collected from the submandibular area into serum separation tubes (Sarstedt AG & Co., Nümbrecht, Germany). Blood was allowed to coagulate at ambient temperature for 20 min. The tubes were centrifuged at 8,000×g for 3 min to separate the serum and stored at 4° C.
Serum Hepatitis B surface antigen (HBsAg) and Serum HBV DNA levels were measured as described.

[2] = system: HBV DNA, Hepatitis B Virus; test: Serum HBV DNA in pHBV mice after MLP delivery peptide plus AD01385 and/or AD01386 (Example 10, Tables 19, 20); conditions: 3 mg/kg MLP delivery peptide plus […] of each RNAi trigger; for Mean HBV DNA in serum: single IV
HBsAg, Hepatitis B Virus [3] = test: Serum HBsAg in pHBV mice after MLP delivery peptide plus AD01385 and/or AD01386 (Example 10, Tables 17, 18); conditions: 3 mg/kg MLP delivery peptide plus […] of each RNAi trigger; for Mean HBsAg in serum: single IV; remark: listed apart in the source

How did the “Mean HBsAg in serum” value (HBsAg, Hepatitis B Virus [1]; day 5) turn out when “AD01385: duplex AM02315-AS/AM02319-SS (TEG) (antisense TAUGAUAAAACGCCGCAGATT; sense UAUUCUGCGGCGUUUUAUCAUAT; siRNA; TEG, chemistry not fully specified)” was run?
Its value is 878 ± 697 ng/mL.

What about the “Mean HBsAg in serum” value (HBsAg, Hepatitis B Virus [1]; day 22) of the same substance?
Its value is 2163 ± 1255 ng/mL.

What about the “Mean HBsAg in serum” value (HBsAg, Hepatitis B Virus [1]; day 36) of the same substance?
The value was 2067 ± 870 ng/mL.

And the “HBsAg in serum (mean ± SD) (normalized to pre-dose and saline control group)” value (HBsAg, Hepatitis B Virus [1]; day 5)?
The value was 0.108 ± 0.026.

And the “HBsAg in serum (mean ± SD) (normalized to pre-dose and saline control group)” value (HBsAg, Hepatitis B Virus [1]; day 8)?
The value was 0.282 ± 0.030.

What about the “HBsAg in serum (mean ± SD) (normalized to pre-dose and saline control group)” value (HBsAg, Hepatitis B Virus [1]; day 15) of the same substance?
Its value is 0.665 ± 0.135.

What about the “HBsAg in serum (mean ± SD) (normalized to pre-dose and saline control group)” value (HBsAg, Hepatitis B Virus [1]; day 22) of the same substance?
The value was 0.589 ± 0.109.

And the “HBsAg in serum (mean ± SD) (normalized to pre-dose and saline control group)” value (HBsAg, Hepatitis B Virus [1]; day 29)?
The value was 0.660 ± 0.175.

And the “Mean HBV DNA in serum” value ([2]; day 5)?
Its value is 9.84 × 10^6 copies/mL.

And the “Mean HBV DNA in serum” value ([2]; day 8)?
Its value is 1.64 × 10^7 copies/mL.

What about the “Mean HBV DNA in serum” value ([2]; day 15) of the same substance?
The value was 7.69 × 10^7 copies/mL.

What about the “Mean HBV DNA in serum” value ([2]; day 22) of the same substance?
The value was 7.60 × 10^7 copies/mL.

What about the “Mean HBV DNA in serum” value ([2]; day 29) of the same substance?
The value was 7.69 × 10^7 copies/mL.

And the “Mean HBV DNA in serum” value ([2]; day 36)?
The value was 6.91 × 10^7 copies/mL.

What about the “Mean HBV DNA in serum” value ([2]; day −2 (pre-dose)) of the same substance?
Its value is 2.04 × 10^8 copies/mL.

And the “Mean HBV DNA in serum (normalized to pre-dose and saline control group)” value ([2]; day 5)?
Its value is 0.050 ± 0.000.

And the “Mean HBV DNA in serum (normalized to pre-dose and saline control group)” value ([2]; day 8)?
The value was 0.087 ± 0.020.

And the “Mean HBV DNA in serum (normalized to pre-dose and saline control group)” value ([2]; day 15)?
The value was 0.474 ± 0.029.

And the “Mean HBV DNA in serum (normalized to pre-dose and saline control group)” value ([2]; day 22)?
Its value is 0.510 ± 0.074.

And the “Mean HBV DNA in serum (normalized to pre-dose and saline control group)” value ([2]; day 29)?
The value was 0.571 ± 0.034.

What about the “Mean HBV DNA in serum (normalized to pre-dose and saline control group)” value ([2]; day 36) of the same substance?
The value was 0.582 ± 0.040.

What about the “Mean HBV DNA in serum (normalized to pre-dose and saline control group)” value ([2]; day −2 (pre-dose)) of the same substance?
The value was 1.000 ± 0.000.

What about the “Mean HBsAg in serum” value (HBsAg, Hepatitis B Virus [3]; day 8) of the same substance?
The value was 1905 ± 1232 ng/mL.

What about the “Mean HBsAg in serum” value (HBsAg, Hepatitis B Virus [3]; day 15) of the same substance?
The value was 2309 ± 1315 ng/mL.

What about the “Mean HBsAg in serum” value (HBsAg, Hepatitis B Virus [3]; day 29) of the same substance?
Its value is 2418 ± 1470 ng/mL.

What about the “Mean HBsAg in serum” value (HBsAg, Hepatitis B Virus [3]; day −2 (pre-dose)) of the same substance?
The value was 7218 ± 4071 ng/mL.

And the “HBsAg in serum (mean ± SD) (normalized to pre-dose and saline control group)” value (HBsAg, Hepatitis B Virus [3]; day 36)?
Its value is 0.592 ± 0.140.

And the “HBsAg in serum (mean ± SD) (normalized to pre-dose and saline control group)” value (HBsAg, Hepatitis B Virus [3]; day −2 (pre-dose))?
The value was 1.000 ± 0.000.

With “AD01386: duplex AM02312-AS/AM02320-SS (C6) (antisense TACCAAUUUAUGCCUACAGTT; sense UAUCUGUAGGCAUAAAUUGGUAT; siRNA; C6, chemistry not fully specified)” as the substance, how does the “Mean HBsAg in serum” value (HBsAg, Hepatitis B Virus [1]; day 5) read?
The value was 125 ± 98 ng/mL.

And the “Mean HBsAg in serum” value (HBsAg, Hepatitis B Virus [1]; day 22)?
The value was 738 ± 670 ng/mL.

And the “Mean HBsAg in serum” value (HBsAg, Hepatitis B Virus [1]; day 36)?
The value was 2252 ± 1565 ng/mL.

And the “HBsAg in serum (mean ± SD) (normalized to pre-dose and saline control group)” value (HBsAg, Hepatitis B Virus [1]; day 5)?
Its value is 0.021 ± 0.007.

What about the “HBsAg in serum (mean ± SD) (normalized to pre-dose and saline control group)” value (HBsAg, Hepatitis B Virus [1]; day 8) of the same substance?
The value was 0.016 ± 0.008.

And the “HBsAg in serum (mean ± SD) (normalized to pre-dose and saline control group)” value (HBsAg, Hepatitis B Virus [1]; day 15)?
Its value is 0.078 ± 0.027.

What about the “HBsAg in serum (mean ± SD) (normalized to pre-dose and saline control group)” value (HBsAg, Hepatitis B Virus [1]; day 22) of the same substance?
The value was 0.237 ± 0.041.

And the “HBsAg in serum (mean ± SD) (normalized to pre-dose and saline control group)” value (HBsAg, Hepatitis B Virus [1]; day 29)?
Its value is 0.526 ± 0.045.

And the “Mean HBV DNA in serum” value ([2]; day 5)?
Its value is 4.42 × 10^6 copies/mL.

What about the “Mean HBV DNA in serum” value ([2]; day 8) of the same substance?
Its value is 2.37 × 10^6 copies/mL.

What about the “Mean HBV DNA in serum” value ([2]; day 15) of the same substance?
Its value is 1.04 × 10^8 copies/mL.

And the “Mean HBV DNA in serum” value ([2]; day 22)?
Its value is 4.94 × 10^7 copies/mL.

What about the “Mean HBV DNA in serum” value ([2]; day 29) of the same substance?
The value was 1.04 × 10^8 copies/mL.

What about the “Mean HBV DNA in serum” value ([2]; day 36) of the same substance?
Its value is 9.53 × 10^7 copies/mL.

And the “Mean HBV DNA in serum” value ([2]; day −2 (pre-dose))?
The value was 2.24 × 10^8 copies/mL.

And the “Mean HBV DNA in serum (normalized to pre-dose and saline control group)” value ([2]; day 5)?
The value was 0.020 ± 0.002.

What about the “Mean HBV DNA in serum (normalized to pre-dose and saline control group)” value ([2]; day 8) of the same substance?
Its value is 0.011 ± 0.002.

And the “Mean HBV DNA in serum (normalized to pre-dose and saline control group)” value ([2]; day 15)?
The value was 0.153 ± 0.004.

What about the “Mean HBV DNA in serum (normalized to pre-dose and saline control group)” value ([2]; day 22) of the same substance?
Its value is 0.303 ± 0.048.

What about the “Mean HBV DNA in serum (normalized to pre-dose and saline control group)” value ([2]; day 29) of the same substance?
Its value is 0.710 ± 0.080.

What about the “Mean HBV DNA in serum (normalized to pre-dose and saline control group)” value ([2]; day 36) of the same substance?
Its value is 0.728 ± 0.022.

And the “Mean HBV DNA in serum (normalized to pre-dose and saline control group)” value ([2]; day −2 (pre-dose))?
The value was 1.000 ± 0.000.

And the “Mean HBsAg in serum” value (HBsAg, Hepatitis B Virus [3]; day 8)?
The value was 109 ± 120 ng/mL.

And the “Mean HBsAg in serum” value (HBsAg, Hepatitis B Virus [3]; day 15)?
The value was 273 ± 321 ng/mL.

What about the “Mean HBsAg in serum” value (HBsAg, Hepatitis B Virus [3]; day 29) of the same substance?
Its value is 1627 ± 1487 ng/mL.

And the “Mean HBsAg in serum” value (HBsAg, Hepatitis B Virus [3]; day −2 (pre-dose))?
Its value is 6219 ± 5606 ng/mL.

And the “HBsAg in serum (mean ± SD) (normalized to pre-dose and saline control group)” value (HBsAg, Hepatitis B Virus [3]; day 36)?
Its value is 0.808 ± 0.151.

And the “HBsAg in serum (mean ± SD) (normalized to pre-dose and saline control group)” value (HBsAg, Hepatitis B Virus [3]; day −2 (pre-dose))?
The value was 1.000 ± 0.000.
